The values below come from patent EP0733364A1, “MEDICINAL COMPOSITION FOR CIRCULATORY ORGAN” (NIPPON SHINYAKU COMPANY, LIMITED, priority 1993, dated 1995).

Values joined by “and” are separate entries in the source; they are usually repeats but may differ in a detail not shown here. Identical values can stand only once.

Type in all cases: in vivo, beagle dogs
In one data set the test system is α2-PI. Put plainly: Assay of α2-PI activity in plasma after oral administration. The settings on record: oral once a day for 3 days (0, 24, 48 hr), 116 mg/kg compound A as printed, Fig. 1. The method, then: The drugs were administered to groups of 4 beagle dogs (22-23 months old, body weights 9-11 kg) and the blood was serially sampled (-120, 0, 6, 24, 48, 72, 96, and 168 hr) for assay of α2-PI activity. One capsule of either compound A or compound B was administered orally once a day for 3 days (at 0, 24, and 48 hr) [116 mg/kg compound A or 300 mg/kg compound B (equimolar to compound A)]. Blood sampling was carried out by drawing 9 volumes of blood into a vacuum blood sampling tube containing 1 volume of 3.8% sodium citrate and, after gentle mixing, each blood sample was centrifuged (3,000 rpm x 10 min.) to separate the plasma. The plasma α2-PI activity was assayed with Test Team APL 2 Kit using the cleavage of the synthetic chromogenic substrate S-2251 as an indicator by plasmin.

Data set [1] can be described thus: Observation for evaluation of diarrhea (stool property). More on the design: key to stool property: -: normal stool; ±: slightly soft stool; +: soft stool; ++: mild diarrhea; +++: diarrhea. The note with it: for stool property: one line per animal. An excerpt:
In Test Example 1, the stool property was monitored every day and rated on the 5-point scale of -: normal, ±: slightly soft stool, +: soft stool, ++: mild diarrhea, +++: diarrheal.

The test system of the next data set is fibrin clot. The experiment in a line: Fibrinolytic action: lysis of 125I-fibrin clot made from plasma obtained 48 hr after drug administration. The note with it: for Fibrinolysis (%) : (24 hr after addition of Urokinase): N 4, mean S.E. The method, then: The plasma obtained 48 hr after drug administration in Test Example 1 was used in this test.
To 0.35 ml of plasma was added 40 µl ^125I-fibrinogen (185 kBq/ml) and the mixture was dispensed to 3 test tubes, 0.1 ml per tube. To each of the test tubes was added 10 µl each of 100 µU/ml thrombin solution and 0.5 M calcium chloride solution and, after stirring, each tube was incubated at 37°C for 30 min to prepare a fibrin clot. Then, 2% albumin-saline containing 0, 50 or 100 U of urokinase was added to the tubes, 1 ml per tube. The tubes were incubated at 37°C and at 0, 3, 6, 9, 21 and 24 hr of incubation, 50µl of the supernatant was taken in a RIA tube and using a γ-counter (Packard Japan, A5424), the amount of the ^125I-fibrin degradated product was determined.

Take `CCCC(=O)OCC1C(OC(=O)CCC)C(OC(=O)CCC)C(OC(=O)CCC)CN1C` (centres unmarked) [Compound A, 2,3,4,5-tetra-O-butyryl-N-methyl-moranoline]: in the data set with α2-PI, the α2-PI activity entry is “decreased α2-PI activity significantly”. In addition, the stool property result in data set [1] (Day 1, 300mg/kg oral once a day for 3 days, 300 mg/kg) is “+ and - and ± and +++”; in data set [1] (Day 3, 300mg/kg oral once a day for 3 days, 300 mg/kg), “+++ and ± (2×) and -”; in data set [1] (Day 4, 300mg/kg oral once a day for 3 days, 300 mg/kg), “± (2×) and - (2×)”; in data set [1] (Day 7, 300mg/kg oral once a day for 3 days, 300 mg/kg), “± and - (3×)”. Moreover, in data set [1] (summary of Table 2), the diarrhea-inducing effect result is recorded as “less remarkable in diarrhea-inducing effect than compound B”. Further, the “Fibrinolysis (%) : (24 hr after addition of Urokinase)” value in the data set with fibrin clot (Urokinase 0U, 300mg/kg) is given as 143 ± 27%; with fibrin clot (Urokinase 50U, 300mg/kg), 278 ± 31%; in the data set with fibrin clot (Urokinase 100U, 300mg/kg), 342 ± 30%. Further, the fibrinolytic activity result in the data set on fibrin clot (urokinase addition level of 100 U) is “significantly accelerated the fibrinolytic activity”.
Consider `CN1C[C@H](O)[C@@H](O)[C@H](O)[C@H]1CO` [Compound B, N-methylmoranoline, reference compound], for which the stool property entry in data set [1] (Day 1, 116mg/kg oral once a day for 3 days, 116 mg/kg) is “+++ (2×) and ++ and +”; in data set [1] (Day 3, 116mg/kg oral once a day for 3 days, 116 mg/kg) it was “+++ (3×) and + +”; in data set [1] (Day 4, 116mg/kg oral once a day for 3 days, 116 mg/kg), “+ (2×) and ± (2×)”; in data set [1] (Day 7, 116mg/kg oral once a day for 3 days) it was “-”. Besides, the “Fibrinolysis (%) : (24 hr after addition of Urokinase)” value stood at 172 ± 56% in the data set on fibrin clot (Urokinase 0U, 116mg/kg); 213 ± 27% in the data set on fibrin clot (Urokinase 50U, 116mg/kg); 340 ± 49% in the data set with fibrin clot (Urokinase 100U, 116mg/kg).
